From patent US20130209515A1, “ANTI-INFECTIVE AND IMMUNOMODULATORY COMPOUNDS” (priority 2005, published 2013)

Tested on: mouse genes
Assay: Whole genome expression in blood of mice after 2AA (Affymetrix GeneChip)
Format: in vivo
Details: for Fold Change X14607 Lipocalin 2 / Fold Change AF220015 Rpt-1; regulatory protein, T lymphocyte 1 / Fold Change AF237910 Membrane-spanning 4-domains, subfamily A / Fold Change AI323359 Csfmr, colony stimulating factor IR, regulator of myeloid cell proliferation / Fold Change AI462015 Nuclear factor of kappa light chain gene enhancer in B-cells inhibitor, alpha / Fold Change AI648846 Solute carrier family 6 / Fold Change AV026617 FBJ osteosarcoma oncogene / Fold Change AV229143 Interferon activated gene (202A) / Fold Change AV318494 Myeloid cell leukemia sequence 1 / Fold Change BB193024 Interferon-induced transmembrane protein-2 / Fold Change BB241535 Suppressor of cytokine signaling 3 / Fold Change BB769628 Colony stimulating factor 2 receptor, beta 1 / Fold Change BB784999 Triggering receptor expressed on myeloid cells 1 / Fold Change BB831725 Suppressor of cytokine signaling 3 / Fold Change BC003839 Myeloid cell leukemia sequence 1 (Mcl1) / Fold Change BC010291 Interferon-inducible protein (Cd225) / Fold Change BC011092 Chemokine (C-C) receptor 1 / Fold Change BC011437 IL-1β / Fold Change BC012653 Chemokine (C-X3-C) receptor 1 / Fold Change BC021916 EMAPI, cytokine activity / Fold Change BC022943 Lymphocyte cytosolic protein 1 / Fold Change BE285634 Interleukin-1 receptor accessory protein / Fold Change NM_008039 Receptor activity [formyl peptide receptor, related sequence 2] (Fpr-rs2) / Fold Change NM_008677 p40phox; intracellular signaling cascade neutrophil cytosolic factor 4 (Ncf4) / Fold Change NM_008879 Pls2, L-fimbrin, calcium ion binding lymphocyte cytosolic proteing 1 (Lep 1) / Fold Change NM_009883 Nuclear factor induced by IL-6 (NF-IL6) / Fold Change NM_011087 Paired-Ig-like receptor A1 (Piral) / Fold Change NM_011313 Cacy; calcium binding protein A6 (calcyclin)cyclin-dependent protein kinase / Fold Change NM_011315 Saa-3 lipid transported activity acute phase response / Fold Change NM_011355 PU.1, transcription factor complex cell growth and/or maintenance / Fold Change NM_011940 Interferon-activatable protein (Ifi202) / Fold Change NM_011999 DCIR; C-type (calcium dependent, carbohydrate recognition domain) lectin / Fold Change NM_030691 Integral to membrane immunoglobulin superfamily, member 6 (Igsf6) / Fold Change NM_030694 Interferon-induced transmembrane protein-3 / Fold Change U05264 Glycoprotein 49B (Gp49b) / Fold Change U72644 Leukocyte specific transcript 1: blood
Method: To identify how 2AA pre-exposure promotes host defense to better protect against P. aeruginosa infection, we carried out whole genome gene expression studies of mice for several experimental conditions using the mouse full-thickness skin thermal injury infection model, including naïve; BI alone; 2AA treatment alone; 2AA pretreatment plus BI. The mice were injected IP, as we were not yet aware of the improved benefit obtained with IV delivery. Whole blood was collected after 0, 6, 24, 96 and 192 hr post 2AA injection. Also, pretreated BI mice were exposed to 2AA at 1 and 4 days pre-BI, with blood samples collected 24 hr post-BI. The transcriptome profiles were then determined and compared, and genes with statistically significant differences in their expression levels between the samples were further analyzed by pair-wise comparison (see experimental design, section 2.2).
In experiments to determine if T-aminoacetophenone acts as an immunomodulator, eight 6-week old CD-1 male mice were treated intraperitonialy with 500 μl of a 20 mM solution of T-aminoacetophenone in 0.9% NaCl (aq). A control group of mice was administered only 0.9% NaCl. Blood was withdrawn from the mice at time points of 6 hours, 24 hours, 96 hours, and 192 hours, and RNA was extracted from each blood sample.
Mouse GeneChip™ arrays, manufactured by Affymetrix (Santa Clara, Calif.), were used to compare the profile of gene expression in the blood samples of mice. The biotin-labeled cRNA used to hybridize to the GeneChips was prepared from the RNA extracted from the blood samples according to the Affymetrix GeneChip Expression Analysis Technical Manual (Research Genetics, Huntsville, Ala.).
The expression profiles from treated and untreated mice were compared and an additional constraint of a minimum expression ratio of 1 was applied to control false positives to 5%. The gene list was clustered and the genes showing upregulation at any of the time points considered were selected. […] Most of the genes listed in the table function in immune response or host-pathogen interaction. The table includes several cytokines and their receptors, genes involved in immune cell proliferation, and calcium-binding proteins that have a role in downstream signaling.

## CC(=O)c1ccccc1N [2AA, 2′-aminoacetophenone]
24 h after IP 2AA
  Fold Change X14607 Lipocalin 2: 0.2 fold
96 h after IP 2AA
  Fold Change AF220015 Rpt-1; regulatory protein, T lymphocyte 1: 0.5 fold
  Fold Change AF237910 Membrane-spanning 4-domains, subfamily A: 0.0 fold
  Fold Change AI323359 Csfmr, colony stimulating factor IR, regulator of myeloid cell proliferation: 0.0 fold
  Fold Change AI462015 Nuclear factor of kappa light chain gene enhancer in B-cells inhibitor, alpha: 0.4 fold
  Fold Change AI648846 Solute carrier family 6: 3.7 fold
  Fold Change AV026617 FBJ osteosarcoma oncogene: 0.0 fold
  Fold Change AV229143 Interferon activated gene (202A): 6.8 fold
  Fold Change AV318494 Myeloid cell leukemia sequence 1: 0.3 fold
  Fold Change BB193024 Interferon-induced transmembrane protein-2: 0.1 fold
  Fold Change BB241535 Suppressor of cytokine signaling 3: 0.3 fold
  Fold Change BB769628 Colony stimulating factor 2 receptor, beta 1: 3.2 fold
  Fold Change BB784999 Triggering receptor expressed on myeloid cells 1: 4.6 fold
  Fold Change BB831725 Suppressor of cytokine signaling 3: 2.0 fold
  Fold Change BC003839 Myeloid cell leukemia sequence 1 (Mcl1): −0.4 fold
  Fold Change BC010291 Interferon-inducible protein (Cd225): −0.3 fold
  Fold Change BC011092 Chemokine (C-C) receptor 1: −0.7 fold
  Fold Change BC011437 IL-1β: 0.2 fold
  Fold Change BC012653 Chemokine (C-X3-C) receptor 1: 0.0 fold
  Fold Change BC021916 EMAPI, cytokine activity: −0.3 fold
  Fold Change BC022943 Lymphocyte cytosolic protein 1: −0.4 fold
  Fold Change BE285634 Interleukin-1 receptor accessory protein: −1.1 fold
  Fold Change NM_008039 Receptor activity [formyl peptide receptor, related sequence 2] (Fpr-rs2): 0.2 fold
  Fold Change NM_008677 p40phox; intracellular signaling cascade neutrophil cytosolic factor 4 (Ncf4): 0.0 fold
  Fold Change NM_008879 Pls2, L-fimbrin, calcium ion binding lymphocyte cytosolic proteing 1 (Lep 1): 0.0 fold
  Fold Change NM_009883 Nuclear factor induced by IL-6 (NF-IL6): −0.1 fold
  Fold Change NM_011087 Paired-Ig-like receptor A1 (Piral): 0.2 fold
  Fold Change NM_011313 Cacy; calcium binding protein A6 (calcyclin)cyclin-dependent protein kinase: 0.5 fold
  Fold Change NM_011315 Saa-3 lipid transported activity acute phase response: 1.5 fold
  Fold Change NM_011355 PU.1, transcription factor complex cell growth and/or maintenance: 9.2 fold
  Fold Change NM_011940 Interferon-activatable protein (Ifi202): 9.4 fold
  Fold Change NM_011999 DCIR; C-type (calcium dependent, carbohydrate recognition domain) lectin: 5.3 fold
  Fold Change NM_030691 Integral to membrane immunoglobulin superfamily, member 6 (Igsf6): 0.0 fold
  Fold Change NM_030694 Interferon-induced transmembrane protein-3: 0.2 fold
  Fold Change U05264 Glycoprotein 49B (Gp49b): 0.6 fold
  Fold Change U72644 Leukocyte specific transcript 1: −0.2 fold
  Fold Change X14607 Lipocalin 2: 0.2 fold
192 h after IP 2AA
  Fold Change AF220015 Rpt-1; regulatory protein, T lymphocyte 1: 0.6 fold
  Fold Change AF237910 Membrane-spanning 4-domains, subfamily A: 0.5 fold
  Fold Change AI323359 Csfmr, colony stimulating factor IR, regulator of myeloid cell proliferation: 0.3 fold
  Fold Change AI462015 Nuclear factor of kappa light chain gene enhancer in B-cells inhibitor, alpha: 0.7 fold
  Fold Change AI648846 Solute carrier family 6: 7.8 fold
  Fold Change AV026617 FBJ osteosarcoma oncogene: 10.5 fold
  Fold Change AV229143 Interferon activated gene (202A): 6.2 fold
  Fold Change AV318494 Myeloid cell leukemia sequence 1: 1.2 fold
  Fold Change BB193024 Interferon-induced transmembrane protein-2: 0.3 fold
  Fold Change BB241535 Suppressor of cytokine signaling 3: 1.0 fold
  Fold Change BB769628 Colony stimulating factor 2 receptor, beta 1: 5.2 fold
  Fold Change BB784999 Triggering receptor expressed on myeloid cells 1: 0.0 fold
  Fold Change BB831725 Suppressor of cytokine signaling 3: 5.9 fold
  Fold Change BC003839 Myeloid cell leukemia sequence 1 (Mcl1): 0.1 fold
  Fold Change BC010291 Interferon-inducible protein (Cd225): −0.3 fold
  Fold Change BC011092 Chemokine (C-C) receptor 1: −0.3 fold
  Fold Change BC011437 IL-1β: 0.6 fold
  Fold Change BC012653 Chemokine (C-X3-C) receptor 1: 0.0 fold
  Fold Change BC021916 EMAPI, cytokine activity: −0.2 fold
  Fold Change BC022943 Lymphocyte cytosolic protein 1: −0.1 fold
  Fold Change BE285634 Interleukin-1 receptor accessory protein: −0.2 fold
  Fold Change NM_008039 Receptor activity [formyl peptide receptor, related sequence 2] (Fpr-rs2): 0.2 fold
  Fold Change NM_008677 p40phox; intracellular signaling cascade neutrophil cytosolic factor 4 (Ncf4): 0.1 fold
  Fold Change NM_008879 Pls2, L-fimbrin, calcium ion binding lymphocyte cytosolic proteing 1 (Lep 1): 0.0 fold
  Fold Change NM_009883 Nuclear factor induced by IL-6 (NF-IL6): −0.1 fold
  Fold Change NM_011087 Paired-Ig-like receptor A1 (Piral): 0.1 fold
  Fold Change NM_011313 Cacy; calcium binding protein A6 (calcyclin)cyclin-dependent protein kinase: 1.4 fold
  Fold Change NM_011315 Saa-3 lipid transported activity acute phase response: −0.2 fold
  Fold Change NM_011355 PU.1, transcription factor complex cell growth and/or maintenance: 6.0 fold
  Fold Change NM_011940 Interferon-activatable protein (Ifi202): 9.1 fold
  Fold Change NM_011999 DCIR; C-type (calcium dependent, carbohydrate recognition domain) lectin: 9.6 fold
  Fold Change NM_030691 Integral to membrane immunoglobulin superfamily, member 6 (Igsf6): 5.6 fold
  Fold Change NM_030694 Interferon-induced transmembrane protein-3: 0.6 fold
  Fold Change U05264 Glycoprotein 49B (Gp49b): 0.9 fold
  Fold Change U72644 Leukocyte specific transcript 1: 0.1 fold
  Fold Change X14607 Lipocalin 2: 0.2 fold
IP 2AA, blood 0, 6, 24, 96, 192 hr
  genes with >2× expression differences at least at one point vs control mice: 835 genes
post-2AA treatment
  genes involved in the P38 MAPK pathway induced: 7/8
